“Also recorded” adds a separate entry of the source.
Tests used:
[1] = tested on: HCT-116 human colon cancer cells; assay: MTT growth inhibition assay, HCT-116; format: cell-based; conditions: 48 h, relative to control
Procedure: (§1) The effects of the aspirin-stilbene derivative conjugates compared to standards were evaluated based on the inhibition of growth of HCT-116 and HT-29 human colon cancer cells. Cells were plated in 96-well plates in growth medium with 10% FBS. After 24 h, the medium was replaced with fresh medium containing test agent with desired final concentration (20, 30, 40, 50, and 60 μM), and the cells were incubated for 48 h. Viable cells were analyzed using the MTT assay, and the results are shown (FIG. 1) relative to control. Each value represents the mean±S.D. (n=8). FIG. 1, Panel A summarizes the results for aspirin (As), Res, RAS, RAS-1, and the combination of resveratrol and aspirin (Res+As). […] FIG. 1, Panel B summarizes the results for As, MRes, MRAS and the combination of MRes and aspirin (MRes+As). […] FIG. 1, Panel C summarizes the results for As, Pt, PAS, and the combination of pterostilbene and aspirin (Pt+As).
(§2) The effects of As, 6-shogaol (6-s), SAS and the combination of 6-shogaol and aspirin (6-s+As) on the growth of HCT-116 and HT-29 human colon cancer cells and H1299 human lung cancer cells were measured. Cells were plated in 96-well plates in growth medium with 10% FBS. After 24 h, the medium was replaced with fresh medium containing test agent with desired final concentration (5, 7.5, 10, 15, and 20 μM), and the cells were incubated for 48 h. Viable cells were analyzed using the MTT assay, and the results are shown relative to control (FIG. 2).
as §2, with “6-gingerol (6g), GAS,” for “6-shogaol (6-s), SAS”, “6-gingerol” for “6-shogaol”, “(6g+As)” for “(6-s+As)”, “(20, 40, 60, 80,” for “(5, 7.5, 10, 15,”, “100” for “20”, “3).” for “2).”

[2] = tested on: HT-29 human colon cancer cells; assay: MTT growth inhibition assay, HT-29; format: cell-based; conditions: 48 h, relative to control
Procedure: as §1, §2
as §2, with “6-gingerol (6g), GAS,” for “6-shogaol (6-s), SAS”, “6-gingerol” for “6-shogaol”, “(6g+As)” for “(6-s+As)”, “(20, 40, 60, 80,” for “(5, 7.5, 10, 15,”, “100” for “20”, “3).” for “2).”

[3] = tested on: H1299 human lung cancer cells; assay: MTT growth inhibition assay, H1299; format: cell-based; conditions: 48 h, relative to control
Procedure: as §2
as §2, with “6-gingerol (6g), GAS,” for “6-shogaol (6-s), SAS”, “6-gingerol” for “6-shogaol”, “(6g+As)” for “(6-s+As)”, “(20, 40, 60, 80,” for “(5, 7.5, 10, 15,”, “100” for “20”, “3).” for “2).”

[4] = Urinary metabolic profile in mice (LC/MS); format: in vivo; conditions: oral gavage 200 mg/kg, 24 h urine, FIG. 5
Procedure: The metabolic profile of Pt using LC/MS 23 was investigated. PAS was administered to mice (n=5) by oral gavage (200 mg/kg), and urine samples were collected in metabolism cages for 24 h after administration of vehicle (control mice) or PAS. LC/MS methods were developed to analyze PAS, pterostilbene, and aspirin. LC chromatograms of urine samples collected from PAS-treated mice obtained using positive APCI-MS interface (FIG. 5): (A) before and (B) after enzymatic hydrolysis (treated with β-glucuronidase and sulfatase); using negative ESI-MS interface: (C) before and (D) after enzymatic hydrolysis.
PAS had the highest response under positive APCI/MS mode, and aspirin and salicylic acid had the highest response under negative ESI/MS mode. Both positive APCI/MS and negative ESI/MS modes are sensitive to pterostilbene. However, aspirin and salicylic acid are hardly detectable under positive APCI/MS mode, and PAS is not detectable under negative ESI/MS mode. Therefore, APCI/MS positive mode was used to analyze PAS, pterostilbene, and their metabolites, and ESI/MS negative mode was used to analyze aspirin, pterostilbene, and their metabolites.

[5] = tested on: human colon cancer cells (HCT-116)
[6] = tested on: human colon cancer cells (HT-29)

CCCCCC(O)CC(=O)CCc1ccc(OC(=O)c2ccccc2OC(C)=O)c(OC)c1 (stereo not shown) [GAS, 6-gingerol aspirinate]
growth inhibitory effect ([1]; 20, 40, 60, 80, 100 μM, FIG. 3): much stronger growth inhibitory effect than 6-gingerol and aspirin alone, as well as the combination of 6-gingerol and aspirin (1:1)
growth inhibitory effect ([2]; 20, 40, 60, 80, 100 μM, FIG. 3): much stronger growth inhibitory effect than 6-gingerol and aspirin alone, as well as the combination of 6-gingerol and aspirin (1:1)
growth inhibitory effect ([3]; 20, 40, 60, 80, 100 μM, FIG. 3): much stronger growth inhibitory effect than 6-gingerol and aspirin alone, as well as the combination of 6-gingerol and aspirin (1:1)

CCCCC/C=C/C(=O)CCc1ccc(OC(=O)c2ccccc2OC(C)=O)c(OC)c1 [SAS, 6-shogaol aspirinate]
growth inhibitory effect ([1]; 5, 7.5, 10, 15, 20 μM, FIG. 2): stronger growth inhibitory effect than aspirin alone, but less effective than 6-shogaol alone and the combination of 6-shogaol and aspirin (1:1)
growth inhibitory effect ([2]; 5, 7.5, 10, 15, 20 μM, FIG. 2): stronger growth inhibitory effect than aspirin alone, but less effective than 6-shogaol alone and the combination of 6-shogaol and aspirin (1:1)
growth inhibitory effect ([3]; 5, 7.5, 10, 15, 20 μM, FIG. 2): stronger growth inhibitory effect than aspirin alone, but less effective than 6-shogaol alone and the combination of 6-shogaol and aspirin (1:1)

COc1cc(C=Cc2ccc(OC(=O)c3ccccc3OC(C)=O)cc2)cc(OC)c1 [PAS, pterostilbene aspirinate]
growth inhibitory effect ([1]; 20, 30, 40, 50, 60 μM, FIG. 1): weaker growth inhibitory effects than pterostilbene and the combination of pterostilbene and aspirin (1:1)
detection of parent compound or deacetylated metabolites in urine [4]: neither PAS nor its deacetylated metabolites were detected
hydrolysis in vivo (urinary metabolites) [4]: hydrolyzed in mice to generate metabolites of aspirin and pterostilbene
growth inhibitory effect ([2]; 20, 30, 40, 50, 60 μM, FIG. 1): weaker growth inhibitory effects than pterostilbene and the combination of pterostilbene and aspirin (1:1)

mono-methylated resveratrol aspirinate [MRAS]
growth inhibitory effect ([1]; 20, 30, 40, 50, 60 μM, FIG. 1): weaker growth inhibitory effects than MRes and the combination of MRes and aspirin (1:1)
growth inhibitory effect ([2]; 20, 30, 40, 50, 60 μM, FIG. 1): weaker growth inhibitory effects than MRes and the combination of MRes and aspirin (1:1)

CC(=O)Oc1ccccc1C(=O)Oc1ccc(/C=C/c2cc(O)cc(O)c2)cc1 [RAS, 4′-aspirinated resveratrol]
hydrolysis in cells [5]: hydrolyzed in human colon cancer cells (HCT-116 and HT-29) to generate resveratrol and aspirin
growth inhibitory effect ([1]; 20, 30, 40, 50, 60 μM, FIG. 1): stronger growth inhibitory effect than resveratrol and aspirin alone, and stronger than the combination of resveratrol and aspirin (1:1); also recorded: much stronger growth inhibitory effects than RAS-1, MRAS, and PAS
hydrolysis in cells [6]: hydrolyzed in human colon cancer cells (HCT-116 and HT-29) to generate resveratrol and aspirin
growth inhibitory effect ([2]; 20, 30, 40, 50, 60 μM, FIG. 1): stronger growth inhibitory effect than resveratrol and aspirin alone, and stronger than the combination of resveratrol and aspirin (1:1); also recorded: much stronger growth inhibitory effects than RAS-1, MRAS, and PAS
